Measurements taken from patent publication US20060069157A1, “Method of ameliorating or abrogating the effects of a neurodegenerative disorder, such as Huntington's disease, by sodium butyrate chemotherapy” (U.S. DEPARTMENT OF VETERANS AFFAIRS, priority 2004, published 2006).
Marks after values point to notes of the source that are not given here.

Experiments:
[1] = test system: R6/2 transgenic mouse model of HD; test: Survival of R6/2 mice, intraperitoneal dose response; assay type: in vivo
Excerpt: Animals: The Bedford VA Medical Center laboratories have maintained a stable colony of R6/2 HD mice for over 6 years, with founders originating from Jackson Laboratories (Bar Harbor, Me., USA). Male transgenic HD mice of the R6/2 strain were bred with females from their background strain (B6CBAFI/J). Offspring were genotyped using a PCR assay on tail DNA. We have standardized criteria to ensure homogeneity of the cohorts within the testing groups (Dedeoglu et al., 2002). Mice were randomized from 28 litters all within 3 days from the same ‘f’ generation. Body weights were taken at 20 days and mice were equally distributed according to weight within each cohort. Mice under 7 g at 20 days were excluded from the experiments. The animals were housed 5/cage under standard conditions with free access to water and food. The mice were handled under the same conditions by one investigator. Since we have not observed gender differences in survival in the R6/2 transgenic HD mouse model (Ferrante et al., 2000), female mice were used in the experimental paradigms. These experiments were carried out in accordance with the NIH Guide for the Care and Use of Laboratory Animals, and were approved by both the Veterans Administration and Boston University Animal Care Committees.
Intraperitoneal Dosing: Based upon previous studies (Egorin et al., 1999), a dose response study was performed, treating groups of wild type mice (n=10) and littermate R6/2 mice (n=20) with 100, 200, 400, 600, 1,200, 5,000, and 10,000 mg/kg daily intraperitoneal injection (100 Êl) of sodium butyrate (Acros Organics/Fisher Scientific) dissolved in PBS and made fresh daily. […]
Survival: R6/2 mice were assessed for morbidity and mortality twice daily, mid morning and late afternoon. Motor performance and ability to feed were closely monitored and used as the basis for determining when to euthanize the mice. […] In addition, deaths occurred overnight and were recorded the following morning. […]
Statistics: The data are expressed as the mean+standard error of the mean. […] Survival data was analyzed by the Kaplan-Meier survival curves.

Sp1 = Sp1 acetylation immunoprecipitation and Western blot analysis; assay type: in vivo, mouse; details: 1.2 g/kg/day i.p. for two weeks
Protocol: Sp1 Acetylation Immunoprecipitation and Western Blot Analysis: At 42 days of age, groups (n=6) of R6/2 mice were treated with daily 1.2 g/kg sodium butyrate or PBS intraperitoneal injections for two weeks. The mice were euthanized and tissue lysates were obtained by homogenizing each brain sample with 100 mM Tris (pH 7.4) buffer containing 1% Triton-X 100, 150 mM NaCl, 1 mM sodium orthovanadate, 5 mM sodium fluoride, 3 mM PMSF, 3 mM DTT, 0.5 Êg/ml leupeptin, and 10 Êg/ml aprotinin. To monitor Sp1 acetylation in vivo, tissue lysates were precleared by the addition of 30 Êl of protein A-sepharose (50% v/v slurry) for 1 hr at 4° C. and incubated with 2 Êg of Sp1 antibody for 2-4 hr. Twenty-five Êl of protein A-sepharose was added to lysates and left for 1 hr at […]. All beads were collected by centrifugation and washed twice with lysis buffer and once with PBS. The samples were boiled and divided into equal aliquots before separation on SDS-PAGE. Samples were electrophoresed under reducing conditions on 8% polyacrylamide gels. Proteins were then transferred to nitrocellulose membrane (BioRad, Hercules, Calif.). […] Proteins immunoreactive to acetyl lysine were detected by using an acetyl-lysine specific antibodies (Upstate Biotechnology, Lake Placid, N.Y., 1:1000 dilution). Immunoreactive proteins were detected according to an enhanced chemiluminescent protocol (Amersham, Piscataway, N.J.). […]

huntingtin transgene = test: Transgene expression (Western blot, whole brain, 1C2 antibody); assay type: in vivo, mouse; details: 1.2 g/kg/d; R6/2 whole brain; vs PBS-treated R6/2
Protocol: Transgene Expression: Transgene expression was determined in whole brain by Western blot analysis of groups (n=6) of sodium butyrate-treated (1.2 g/kg/d) and untreated R6/2 mice. Brain tissue was homogenized in a protease inhibitor cocktail buffer (Complete, Roche). Twenty Êg of protein (supernatant fraction) was resolved on 10% SDS-polyacrylamide gel (BioRad), transferred to PVDF membrane (BioRad), and probed with 1C2 antibody (Euromedex, France) specific for regions of expanded huntingtin, using a horseradish conjugated anti-rabbit secondary antibody, followed by chemiluminescent detection (Western Lightening™, New England Nuclear), and run with parallel blots probed against (-tubulin to normalize for gel loading.

[2] = test system: MKP-1, α-globin, β-globin, preproenkephalin mRNA; test: Northern blotting of brain mRNAs; assay type: in vivo, mouse; details: percentage of untreated R6/2, normalized to β-actin
Protocol: Northern Blotting: Two micrograms of total RNA from brain samples of sodium butyrate-treated and untreated R6/2 and wild type mice (n=4 each) were separated on a 1.2% agarose 3% formaldehyde gel in 1× MOPS buffer, electrophoretically transferred to a nylon membrane (Genescreen Ill.) in 1× TAE, and dried in a standard utility oven at 65 βC. cDNA probes were prepared from IMAGE clones (Research Genetics, _-globin 555069, _-globin 318205, MKP-1 4235972), or cDNAs described in previous studies (enkephalin and _-actin probe sequences) (Luthi-Carter et al., 2002). Hybridizations and washes were conducted as previously described (Luthi-Carter et al. 2002). Blots were quantitated using a Molecular Dynamics Phosphorimager and its accompanying ImageQuant software. Signals for target mRNAs were expressed as ratios to _-actin signals (on the same blot), and the data was analyzed by unpaired two-tailed Student's t-test.

With `CCCC(=O)[O-].[Na+]` [sodium butyrate] the extension of survival ([1]; 1,200 mg/kg/d i.p. from day 21, vs PBS-treated R6/2 mice, p<0.001) was 20.8%, the “time at which mice became moribund and died” value ([1]; 5 g/kg/d i.p., treatment initiated at 21 days) was 1 to 11 days and the “morbidity and mortality at onset of treatment” value ([1]; 5,000 and 10,000 mg/kg/d i.p.) was “marked rapidly-coursing morbidity and mortality”. For the same compound, the “basal levels of Sp1” value (Sp1; R6/2 mice) was “did not change”, the “Sp1 acetylation levels in brain” value (Sp1; R6/2 mice vs PBS) was “increased” and the huntingtin transprotein expression-levels (huntingtin transgene) was “no differences”. The “Northern, NaBu Txd R6/2 vs R6/2” value ([2]; MKP-1 mRNA, Cortex, p<0.0001) was 204%^e, the “Northern, NaBu Txd R6/2 vs R6/2” value ([2]; Preproenkephalin mRNA, Striatum) was 98% and the “Northern, NaBu Txd R6/2 vs R6/2” value ([2]; α-globin mRNA, Cortex, p<0.01) was 159%^c. The “Northern, NaBu Txd R6/2 vs R6/2” value ([2]; β-globin mRNA, Cortex, p<0.001) was 206%^d.
